# Patent publication US20250332178A1, “METHODS OF TREATING MYCOBACTERIAL INFECTIONS USING TETRACYCLINE COMPOUNDS” (priority 2018, published 2025)
# Key:
# [1] = test system: rapid-growing mycobacteria (RGM) isolates; assay: MIC (CLSI broth dilution), all RGM isolates; format: cell-based, nontuberculous mycobacteria; details: all 50 RGM isolates
# M. chelonae = assay: MIC (CLSI broth dilution), RGM isolates; format: cell-based
# M. smegmatis group = assay: MIC (CLSI broth dilution), RGM isolates; format: cell-based
# M. abscessus complex = assay: MIC (CLSI broth dilution), RGM isolates; format: cell-based
# Mycobacterium fortuitum = assay: MIC by broth microdilution in CAMHB, clinical isolates; format: cell-based
# Experimental: (§1) A total of 24 clinical isolates of Mycobacterium abscessus, 22 clinical isolates of Mycobacterium chelonae and 20 clinical isolates of Mycobacterium fortuitum were tested in the study. The study also used the antibiotics tigecycline, doxycycline and amikacin for comparison purposes. […] Amikacin was dissolved in DMSO prior to freezing at −20° C. For susceptibility testing, stock solutions of antibiotic compounds were serially diluted in 50 μL of cation adjusted Mueller-Hinton broth (CAMHB) in polystryrene 96-well round-bottom microtiter plates. To each well, 50 μL of the appropriate mycobacterial cell suspension was added to yield a final concentration of about 1×10^5 CFU/mL. The inoculum used for each isolate was measured by titration in saline with Tween 80 and plating on MH agar. The Mycobacterium abscessus and Mycobacterium fortuitum titer plates were incubated at 37° C. in ambient air for 3-4 days and 5-7 days, respectively. The Mycobacterium chelonae titer plates were incubated at 30° C. in ambient air for 3-5 days. Each isolate was tested at least in duplicate. The MIC was defined as the lowest concentration of antimicrobial agent yielding no visible turbidity.
# Mycobacterium chelonae = assay: as above; format: cell-based
# Experimental: as §1
# Mycobacterium abscessus = assay: as above; format: cell-based
# Experimental: as §1
# M. fortuitum group = assay: MIC (CLSI broth dilution), RGM isolates; format: cell-based
# M. mucogenium group = assay: MIC (CLSI broth dilution), RGM isolates; format: cell-based
# M. immunogenum group = assay: MIC (CLSI broth dilution), RGM isolates; format: cell-based; details: M. immunogenum
# [2] = 24 clinical isolates (tigecycline: subset N=14)
smiles,measurement,setting,value
"NCC[C@H](O)C(=O)N[C@@H]1C[C@H](N)[C@@H](O[C@H]2O[C@H](CN)[C@@H](O)[C@H](O)[C@H]2O)[C@H](O)[C@H]1O[C@H]1O[C@H](CO)[C@@H](O)[C@H](N)[C@H]1O [Amikacin, amikacin]",MIC50,[1],4 µg/mL
same,MIC90,[1],16 µg/mL
same,MIC,"M. chelonae; isolate 18, M. chelonae",8 µg/mL
same,MIC,"M. chelonae; isolate 19, M. chelonae",16 µg/mL
same,MIC,"M. chelonae; isolate 20, M. chelonae",16 µg/mL
same,MIC,"M. chelonae; isolate 21, M. chelonae",16 µg/mL
same,MIC,"M. chelonae; isolate 22, M. chelonae",16 µg/mL
same,MIC,"M. smegmatis group; isolate 49, M. smegmatis group, M. goodii",≤2 µg/mL
same,MIC,"M. smegmatis group; isolate 50, M. smegmatis group, M. wolinskyi",≤2 µg/mL
same,MIC,"M. abscessus complex; isolate 1, M. abscessus complex, erm gene type MAB30",8 µg/mL
same,MIC,"M. abscessus complex; isolate 2, M. abscessus complex, erm gene type MAB30",4 µg/mL
same,MIC,"M. abscessus complex; isolate 3, M. abscessus complex, erm gene type MAB30",16 µg/mL
same,MIC,"M. abscessus complex; isolate 4, M. abscessus complex, erm gene type massiliense",8 µg/mL
same,MIC,"M. abscessus complex; isolate 5, M. abscessus complex, erm gene type massiliense/subsp. abs hybrid",32 µg/mL
same,MIC,"M. abscessus complex; isolate 6, M. abscessus complex, erm gene type Type 1 abscessus",8 µg/mL
same,MIC,"M. abscessus complex; isolate 7, M. abscessus complex, erm gene type Type 1 abscessus",8 µg/mL
same,MIC,"M. abscessus complex; isolate 8, M. abscessus complex, erm gene type Type 1 abscessus",8 µg/mL
same,MIC,"M. abscessus complex; isolate 9, M. abscessus complex, erm gene type Type 1 abscessus",>64 µg/mL
same,MIC,"M. abscessus complex; isolate 10, M. abscessus complex, erm gene type Type 1 abscessus",16 µg/mL
same,MIC,"M. abscessus complex; isolate 11, M. abscessus complex, erm gene type Type 6 abscessus",16 µg/mL
same,MIC,"M. abscessus complex; isolate 12, M. abscessus complex, erm gene type Type 6 abscessus",8 µg/mL
same,MIC,"M. abscessus complex; isolate 13, M. abscessus complex, erm gene type Type 6 abscessus",4 µg/mL
same,MIC,"M. abscessus complex; isolate 14, M. abscessus complex, erm gene type Type 6 abscessus",16 µg/mL
same,MIC,"M. abscessus complex; isolate 15, M. abscessus complex, erm gene type Type 7 abscessus",8 µg/mL
same,MIC,"M. abscessus complex; isolate 16, M. abscessus complex, erm gene type Type 7 abscessus",16 µg/mL
same,MIC,"M. abscessus complex; isolate 17, M. abscessus complex, erm gene type Type 8 abscessus",4 µg/mL
same,MIC50,Mycobacterium fortuitum; 20 clinical isolates,0.5 µg/mL
same,MIC90,Mycobacterium fortuitum; 20 clinical isolates,4 µg/mL
same,MIC,"Mycobacterium fortuitum; isolate No. 1, 3349",8 µg/mL
same,MIC,"Mycobacterium fortuitum; isolate No. 2, 3499",0.25 µg/mL
same,MIC,"Mycobacterium fortuitum; isolate No. 3, 2797",2 µg/mL
same,MIC,"Mycobacterium fortuitum; isolate No. 4, 32",1 µg/mL
same,MIC,"Mycobacterium fortuitum; isolate No. 5, 33",2 µg/mL
same,MIC,"Mycobacterium fortuitum; isolate No. 6, 3489",1 µg/mL
same,MIC,"Mycobacterium fortuitum; isolate No. 7, 3491",1 µg/mL
same,MIC,"Mycobacterium fortuitum; isolate No. 8, 54",0.5 µg/mL
same,MIC,"Mycobacterium fortuitum; isolate No. 9, 38",0.5 µg/mL
same,MIC,"Mycobacterium fortuitum; isolate No. 10, 36",1 µg/mL
same,MIC,"Mycobacterium fortuitum; isolate No. 11, 3480",0.5 µg/mL
same,MIC,"Mycobacterium fortuitum; isolate No. 12, 3126",0.5 µg/mL
same,MIC,"Mycobacterium fortuitum; isolate No. 13, 3579",1 µg/mL
same,MIC,"Mycobacterium fortuitum; isolate No. 14, 7484",16 µg/mL
same,MIC,"Mycobacterium fortuitum; isolate No. 15, 3488",0.5 µg/mL
same,MIC,"Mycobacterium fortuitum; isolate No. 16, 3276",0.5 µg/mL
same,MIC,"Mycobacterium fortuitum; isolate No. 17, 3442",0.5 µg/mL
same,MIC,"Mycobacterium fortuitum; isolate No. 18, 3316",0.125 µg/mL
same,MIC,"Mycobacterium fortuitum; isolate No. 19, 3490",0.5 µg/mL
same,MIC,"Mycobacterium fortuitum; isolate No. 20, 2491",4 µg/mL
same,MIC50,Mycobacterium chelonae; 22 clinical isolates,4 µg/mL
same,MIC90,Mycobacterium chelonae; 22 clinical isolates,8 µg/mL
same,MIC,"Mycobacterium chelonae; isolate No. 1, MC 7323",4 µg/mL
same,MIC,"Mycobacterium chelonae; isolate No. 2, MC 7534",8 µg/mL
same,MIC,"Mycobacterium chelonae; isolate No. 3, MC 7368",16 µg/mL
same,MIC,"Mycobacterium chelonae; isolate No. 4, MC 7514",8 µg/mL
same,MIC,"Mycobacterium chelonae; isolate No. 5, MC 7584",4 µg/mL
same,MIC,"Mycobacterium chelonae; isolate No. 6, MC 7192",4 µg/mL
same,MIC,"Mycobacterium chelonae; isolate No. 7, MC 7466",2 µg/mL
same,MIC,"Mycobacterium chelonae; isolate No. 8, MC 7533",4 µg/mL
same,MIC,"Mycobacterium chelonae; isolate No. 9, MC 7579",4 µg/mL
same,MIC,"Mycobacterium chelonae; isolate No. 10, MC 7614",8 µg/mL
same,MIC,"Mycobacterium chelonae; isolate No. 11, MC 7414",4 µg/mL
same,MIC,"Mycobacterium chelonae; isolate No. 12, MC 7313",2 µg/mL
same,MIC,"Mycobacterium chelonae; isolate No. 13, MC 7281",8 µg/mL
same,MIC,"Mycobacterium chelonae; isolate No. 14, MC 7328",8 µg/mL
same,MIC,"Mycobacterium chelonae; isolate No. 15, MC 7294",8 µg/mL
same,MIC,"Mycobacterium chelonae; isolate No. 16, MC 14-S-03",4 µg/mL
same,MIC,"Mycobacterium chelonae; isolate No. 17, MC 14-S-04",4 µg/mL
same,MIC,"Mycobacterium chelonae; isolate No. 18, MC 14-S-05",8 µg/mL
same,MIC,"Mycobacterium chelonae; isolate No. 19, MC 14-S-06",8 µg/mL
same,MIC,"Mycobacterium chelonae; isolate No. 20, MC 14-S-07",4 µg/mL
same,MIC,"Mycobacterium chelonae; isolate No. 21, MC 35757",2 µg/mL
same,MIC,"Mycobacterium chelonae; isolate No. 22, MC 7302",4 µg/mL
same,MIC50,Mycobacterium abscessus; [2],2 µg/mL
same,MIC90,Mycobacterium abscessus; [2],8 µg/mL
same,MIC,"Mycobacterium abscessus; isolate No. 1, BB2",8 µg/mL
same,MIC,"Mycobacterium abscessus; isolate No. 2, BB4",8 µg/mL
same,MIC,"Mycobacterium abscessus; isolate No. 3, 5922",2 µg/mL
same,MIC,"Mycobacterium abscessus; isolate No. 4, BB3",2 µg/mL
same,MIC,"Mycobacterium abscessus; isolate No. 5, BB6",4 µg/mL
same,MIC,"Mycobacterium abscessus; isolate No. 6, 5908",2 µg/mL
same,MIC,"Mycobacterium abscessus; isolate No. 7, BB7",0.5 µg/mL
same,MIC,"Mycobacterium abscessus; isolate No. 8, 6031",0.5 µg/mL
same,MIC,"Mycobacterium abscessus; isolate No. 9, 5785",1 µg/mL
same,MIC,"Mycobacterium abscessus; isolate No. 10, BB8",2 µg/mL
same,MIC,"Mycobacterium abscessus; isolate No. 11, 6111",2 µg/mL
same,MIC,"Mycobacterium abscessus; isolate No. 12, 6005",4 µg/mL
same,MIC,"Mycobacterium abscessus; isolate No. 13, 5605",2 µg/mL
same,MIC,"Mycobacterium abscessus; isolate No. 14, 5931",0.5 µg/mL
same,MIC,"Mycobacterium abscessus; isolate No. 15, BB1",2 µg/mL
same,MIC,"Mycobacterium abscessus; isolate No. 16, BB5",8 µg/mL
same,MIC,"Mycobacterium abscessus; isolate No. 17, 5812",4 µg/mL
same,MIC,"Mycobacterium abscessus; isolate No. 18, 5901",2 µg/mL
same,MIC,"Mycobacterium abscessus; isolate No. 19, 5960",1 µg/mL
same,MIC,"Mycobacterium abscessus; isolate No. 20, 6142",4 µg/mL
same,MIC,"Mycobacterium abscessus; isolate No. 21, 5922",2 µg/mL
same,MIC,"Mycobacterium abscessus; isolate No. 22, LT 949",8 µg/mL
same,MIC,"Mycobacterium abscessus; isolate No. 23, 6025",8 µg/mL
same,MIC,"Mycobacterium abscessus; isolate No. 24, 6153",8 µg/mL
same,MIC,"M. fortuitum group; isolate 23, M. fortuitum group, M. fortuitum",≤2 µg/mL
same,MIC,"M. fortuitum group; isolate 24, M. fortuitum group, M. fortuitum",≤2 µg/mL
same,MIC,"M. fortuitum group; isolate 25, M. fortuitum group, M. fortuitum",≤2 µg/mL
same,MIC,"M. fortuitum group; isolate 26, M. fortuitum group, M. porcinum",≤2 µg/mL
same,MIC,"M. fortuitum group; isolate 27, M. fortuitum group, M. porcinum",≤2 µg/mL
same,MIC,"M. fortuitum group; isolate 28, M. fortuitum group, M. porcinum/M. boenickei",≤2 µg/mL
same,MIC,"M. fortuitum group; isolate 29, M. fortuitum group, M. porcinum/M. boenickei",≤2 µg/mL
same,MIC,"M. fortuitum group; isolate 30, M. fortuitum group, M. porcinum/M. boenickei",≤2 µg/mL
same,MIC,"M. fortuitum group; isolate 31, M. fortuitum group, M. senegalense",≤2 µg/mL
same,MIC,"M. fortuitum group; isolate 32, M. fortuitum group, M. senegalense",≤2 µg/mL
same,MIC,"M. fortuitum group; isolate 33, M. fortuitum group, M. senegalense",≤2 µg/mL
same,MIC,"M. fortuitum group; isolate 34, M. fortuitum group, M. senegalense",≤2 µg/mL
same,MIC,"M. mucogenium group; isolate 39, M. mucogenicum group, M. mucogenicum",≤2 µg/mL
same,MIC,"M. mucogenium group; isolate 40, M. mucogenicum group, M. mucogenicum",≤2 µg/mL
same,MIC,"M. mucogenium group; isolate 41, M. mucogenicum group, M. mucogenicum",≤2 µg/mL
same,MIC,"M. mucogenium group; isolate 42, M. mucogenicum group, M. mucogenicum",≤2 µg/mL
same,MIC,"M. mucogenium group; isolate 43, M. mucogenicum group, M. phocaicum",≤2 µg/mL
same,MIC,"M. mucogenium group; isolate 44, M. mucogenicum group, M. phocaicum",≤2 µg/mL
same,MIC,"M. mucogenium group; isolate 45, M. mucogenicum group, M. phocaicum",≤2 µg/mL
same,MIC,"M. mucogenium group; isolate 46, M. mucogenicum group, M. phocaicum",≤2 µg/mL
same,MIC,"M. mucogenium group; isolate 47, M. mucogenicum group, M. phocaicum",≤2 µg/mL
same,MIC,"M. mucogenium group; isolate 48, M. mucogenicum group, M. phocaicum",≤2 µg/mL
same,MIC,"M. immunogenum group; isolate 35, M. immunogenum group",16 µg/mL
same,MIC,"M. immunogenum group; isolate 36, M. immunogenum group",4 µg/mL
same,MIC,"M. immunogenum group; isolate 37, M. immunogenum group",8 µg/mL
same,MIC,"M. immunogenum group; isolate 38, M. immunogenum group",8 µg/mL
